Patent publication US20210122763A1, “OGA INHIBITOR COMPOUNDS” (Janssen Pharmaceutica NV, priority 2018, published 2021)

Columns and labels:
[1] = target: T1, recombinant human Meningioma Expressed Antigen 5 (MGEA5), also referred to as O-GlcNAcase (OGA) (Homo sapiens, UniProt O60502); experiment: OGA biochemical assay (inhibition of FM-GlcNAc hydrolysis, fluorescence); settings: for Emax: read-out: Enzymatic Emax (%); for IC50: read-out: Enzymatic hOGA, pIC50 (converted)
T1 construct: Full length OGA enzyme was purchased at OriGene (cat #TP322411); purchased OriGene TP322411
T1 sequence (O60502 1-916): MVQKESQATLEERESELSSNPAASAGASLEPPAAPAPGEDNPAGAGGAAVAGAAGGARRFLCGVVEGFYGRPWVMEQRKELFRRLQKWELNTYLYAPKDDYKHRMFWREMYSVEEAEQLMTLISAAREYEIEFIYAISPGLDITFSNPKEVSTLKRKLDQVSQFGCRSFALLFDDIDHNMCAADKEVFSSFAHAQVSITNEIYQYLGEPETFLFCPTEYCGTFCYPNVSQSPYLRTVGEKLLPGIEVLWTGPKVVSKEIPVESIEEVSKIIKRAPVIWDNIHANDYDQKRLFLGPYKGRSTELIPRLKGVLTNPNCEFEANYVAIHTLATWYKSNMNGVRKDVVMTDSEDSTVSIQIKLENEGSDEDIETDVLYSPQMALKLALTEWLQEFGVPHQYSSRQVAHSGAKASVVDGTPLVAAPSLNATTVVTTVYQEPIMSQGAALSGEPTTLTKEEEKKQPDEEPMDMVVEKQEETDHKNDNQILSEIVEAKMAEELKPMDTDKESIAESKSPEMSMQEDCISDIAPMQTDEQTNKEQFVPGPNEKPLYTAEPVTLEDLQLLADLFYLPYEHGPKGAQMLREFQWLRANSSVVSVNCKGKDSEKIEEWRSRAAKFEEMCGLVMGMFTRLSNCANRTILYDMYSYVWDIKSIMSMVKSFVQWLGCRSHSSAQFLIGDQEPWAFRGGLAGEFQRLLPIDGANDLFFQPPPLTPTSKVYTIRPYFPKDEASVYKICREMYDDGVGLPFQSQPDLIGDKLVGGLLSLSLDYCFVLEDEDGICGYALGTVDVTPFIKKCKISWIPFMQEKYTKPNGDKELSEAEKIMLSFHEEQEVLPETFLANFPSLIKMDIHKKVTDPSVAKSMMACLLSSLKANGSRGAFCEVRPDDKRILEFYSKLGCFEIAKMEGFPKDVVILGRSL
From the text: The assay is based on the inhibition of the hydrolysis of fluorescein mono-B-D-N-Acetyl-Glucosamine (FM-GcNAc) (Mariappa et al. 2015, Biochem J470:255) by the recombinant human Meningioma Expressed Antigen 5 (MGEA5), also referred to as O-GlcNAcase (OGA). The hydrolysis FM-GlcNAc (Marker Gene technologies, cat #M1485) results in the formation of B-D-N-glucosamineacetate and fluorescein. The fluorescence of the latter can be measured at excitation wavelength 485 nm and emission wavelength 538 nm. An increase in enzyme activity results in anincrease in fluorescence signal. Full length OGA enzyme was purchased at OriGene (cat #TP322411). The enzyme was stored in 25 mM Tris.HCl, pH 7.3, 100 mM glycine, 10% glycerol at −20° C. Thiamet G and GlcNAcStatin were tested as reference compounds (Yuzwa et al. 2008 Nature Chemical Biology 4:483; Yuzwa et al. 2012 Nature Chemical Biology 8:393). The assay was performed in 200 mM Citrate/phosphate buffer supplemented with 0.005% Tween-20. 35.6 g Na2HPO4 2H2O (Sigma, #C0759) were dissolved in 1 L water to obtain a 200 mM solution. 19.2 g citric acid (Merck, #1.06580) was dissolved in 1 L water to obtain a 100 mM solution. pH of the sodiumphosphate solution was adjusted with the citric acid solution to 7.2. The buffer to stop the reaction consists of a 500 mM Carbonate buffer, pH 11.0. 734 mg FM-GlcNAc were dissolved in 5.48 mL DMSO to obtain a 250 mM solution and was stored at −20° C. OGA was used at a 2 nM concentration and FM-GcNAc at a 100 uM final concentration. Dilutions were prepared in assay buffer.
50 nl of a compound dissolved in DMSO was dispensed on Black Proxiplate™ 384 Plus Assay plates (Perkin Elmer, #6008269) and 3 μl fl-OGA enzyme mix added subsequently. Plates were pre-incubated for 60 min at room temperature and then 2 μl FM-GlcNAc substrate mix added.
Plates were briefly centrifuged for 1 min at 1000 rpm and incubate at room temperature for 6 h. To stop the reaction 5 μl STOP buffer were added and plates centrifuge again 1 min at 1000 rpm. Fluorescence was quantified in the Thermo Scientific Fluoroskan Ascent or the PerkinElmer EnVision with excitation wavelength 485 nm and emission wavelength 538 nm.
For analysis a best-fit curve is fitted by a minimum sum of squares method. From this an IC50 value and Hill coefficient was obtained. High control (no inhibitor) and low control (saturating concentrations of standard inhibitor) were used to define the minimum and maximum values.

OGA = target: T2, OGA (Homo sapiens, UniProt O60502); experiment: OGA cellular assay (ICC detection of O-GlcNAcylated proteins in HEK293 cells inducible for P301L mutant human Tau); type: cell-based; settings: 6 hours incubation; for Emax: HEK293, HEK293 cells inducible for P301L mutant human Tau, maximum = Thiamet G 200 uM; for EC50: HEK293 cells inducible for P301L mutant human Tau, read-out: Cellular hOGA, pEC50 (converted)
T2 construct: HEK293 cells inducible for P301L mutant human Tau (isoform 2N4R) were established at Janssen; endogenous in cells; host or cells: HEK293 cells inducible for P301L mutant human Tau (2N4R)
T2 sequence (O60502 1-916): T1 sequence (O60502 1-916)
Protocol: HEK293 cells inducible for P301L mutant human Tau (isoform 2N4R) were established at Janssen. Thiamet-G was used for both plate validation (high control) and as reference compound (reference EC50 assay validation). OGA inhibition is evaluated through the immunocytochemical (ICC) detection of O-GlcNAcylated proteins by the use of a monoclonal antibody (CTD110.6; Cell Signaling, #9875) detecting 0-GlcNAcylated residues as previously described (Dorfmueller et al. 2010 Chemistry & biology, 17:1250). Inhibition of OGA will result in an increase of 0-GlcNAcylated protein levels resulting in an increased signal in the experiment. Cell nuclei are stained with Hoechst to give a cell culture quality control and a rough estimate of immediate compounds toxicity, if any. ICC pictures are imaged with a Perkin Elmer Opera Phenix plate microscope and quantified with the provided software Perkin Elmer Harmony 4.1.
Cells were propagated in DMEM high Glucose (Sigma, #D5796) following standard procedures. 2 days before the cell assay cells are split, counted and seeded in Poly-D-Lysine (PDL) coated 96-wells (Greiner, #655946) plate at a cell density of 12,000 cells per cm^2 (4,000 cells per well) in 100p of Assay Medium (Low Glucose medium is used to reduce basal levels of GlcNAcylation) (Park et al. 2014 The Journal of biological chemistry 289:13519). At the day of compound test medium from assay plates was removed and replenished with 90 μl of fresh Assay Medium. 10 μl of compounds at a 10 fold final concentration were added to the wells. Plates were centrifuged shortly before incubation in the cell incubator for 6 hours. DMSO concentration was set to 0.2%. Medium is discarded by applying vacuum. For staining of cells medium was removed and cells washed once with 100 μl D-PBS (Sigma, #D8537). From next step onwards unless other stated assay volume was always 50p and incubation was performed without agitation and at room temperature. Cells were fixed in 50 μl of a 4% paraformaldehyde (PFA, Alpha aesar, #043368) PBS solution for 15 minutes at room temperature. […] Before analysis samples were washed 2 times manually for 5 minutes in ICC base buffer.
Imaging is performed using Perkin Elmer Phenix Opera using a water 20× objective and recording 9 fields per well. Intensity readout at 488 nm is used as a measure of O-GlcNAcylation level of total proteins in wells. To assess potential toxicity of compounds nuclei were counted using the Hoechst staining. IC50-values are calculated using parametric non-linear regression model fitting. As a maximum inhibition Thiamet G at a 200 uM concentration is present on each plate. In addition, a concentration response of Thiamet G is calculated on each plate.

Emax [1] [%]	IC50 [1] [µM]	Emax (OGA) [%]	EC50 (OGA) [µM]	SMILES
58	6.31	2	> 1	Cc1cc(OC2CCN([C@H](C)c3ccc4c(n3)OCCO4)CC2)cc(C(F)(F)F)n1 (single isomer, unassigned) [Compound 146]
96	0.0251	81	0.2	Cc1cc(OC2CCN([C@@H](C)c3ccc4c(n3)OCCO4)CC2)cc(C(F)(F)F)n1 (single isomer, unassigned) [Compound 147]
58	6.31	-2	> 1	Cc1cc(OC2CCN([C@@H](C)c3nc4c(cc3F)OCCO4)CC2)cc(C)n1 (single isomer, unassigned) [Compound 149]
99	0.0126	76	0.0398	Cc1cc(OC2CCN(C(C)c3nc4c(cc3F)OCCO4)CC2)cc(C)n1 (stereo not drawn) [Compound 4]
93	1.26	22	> 1	Cc1cc(OC2CCN(C(C)c3cnc4c(c3)OCCO4)CC2)cc(C)n1 (stereo not drawn) [Compound 5]
101	0.00398	87	0.0174	Cc1cc(OC2CCN(C(C)c3nc4c(cc3F)CCO4)CC2)cc(C)n1 (stereo not drawn) [Compound 6]
100	0.0631	71	0.398	Cc1cc(OC2CCN(C(C)c3ccc4sc(C)nc4n3)CC2)cc(C)n1 (stereo not drawn) [Compound 7]
100	0.0158	89	0.0631	Cc1cc(OC2CCN(C(C)c3cc4nc(C)sc4cc3F)CC2)cc(C)n1 (stereo not drawn) [Compound 8]
99	0.0158	74	0.0794	Cc1cc(OC2CCN(C(C)c3nc4c(cc3F)OCCO4)CC2)nc(C)n1 (stereo not drawn) [Compound 12]
96	0.501	8	> 1	Cc1cc(OC2CCN(C(C)c3cnc4c(c3)OCCO4)CC2)nc(C)n1 (stereo not drawn) [Compound 13]
100	0.02	82	0.126	COc1cc(OC2CCN(C(C)c3ccc4c(n3)OCCO4)CC2)cc(C)n1 (stereo not drawn) [Compound 14]
102	0.00501	72	0.0501	COc1cc(OC2CCN(C(C)c3nc4c(cc3F)OCCO4)CC2)cc(C)n1 (stereo not drawn) [Compound 15]
99	0.0251	91	0.126	COc1cc(OC2CCN(C(C)c3ccc4sc(C)nc4n3)CC2)cc(C)n1 (stereo not drawn) [Compound 16]
100	0.0398	61	0.316	Cc1cc(OC2CCN(C(C)c3ccc4c(n3)OCCO4)CC2)cc(C(F)(F)F)n1 (stereo not drawn) [Compound 17]
101	0.00631	79	0.0631	Cc1cc(OC2CCN(C(C)c3nc4c(cc3F)OCCO4)CC2)cc(C(F)(F)F)n1 (stereo not drawn) [Compound 18]
92	1	17	> 1	Cc1cc(OC2CCN(C(C)c3cnc4c(c3)OCCO4)CC2)cc(C(F)(F)F)n1 (stereo not drawn) [Compound 19]
101	0.0501	55	0.813	Cc1cc(OC2CCN(C(C)c3ccc4sc(C)nc4n3)CC2)cc(C(F)(F)F)n1 (stereo not drawn) [Compound 21]
96	0.501	56	0.631	Cc1cc(OC2CCN(C(C)c3ccc4c(c3)OCCO4)CC2)cc(C)n1 (stereo not drawn) [Compound 25]
99	0.1	76	0.501	Cc1cc(OC2CCN(C(C)c3ccc4sc(C)nc4n3)CC2)c(Cl)c(C)n1 (stereo not drawn) [Compound 27]
101	0.01	68	0.126	Cc1cc(O[C@H]2CCN(C(C)c3ccc4c(n3)OCCO4)C[C@H]2C)cc(C)n1 (stereo partly drawn) [Compound 28]
60	5.01	7	> 1	Cc1cc(OC2CCN(C(C)c3cc4c(cn3)OCCO4)CC2)cc(C)n1 (stereo not drawn) [Compound 29]
100	0.0158	72	0.0794	Cc1cc(OC2CCN(C(C)c3nc4nc(C)sc4cc3F)CC2)cc(C)n1 (stereo not drawn) [Compound 32]
100	0.0158	65	0.251	Cc1cc(OC2CCN(C(C)c3nc4nc(C)sc4cc3F)CC2)nc(C)n1 (stereo not drawn) [Compound 33]
102	0.158	77	0.158	Cc1cc(OC2CCN(C(C)c3cnc4c(c3)OCCN4)CC2)cc(C)n1 (stereo not drawn) [Compound 34]
